Results as given in PubChem BioAssay (NCI).
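1) Cells in 96-well plates. 2) Compound, 48 h, 5 concentrations. 3) Linear interpolation between surrounding doses. 4) Unreached endpoint = highest concentration. TGI marks complete inhibition of growth.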

What was measured:
Assay in all cases: DTP human tumour cell line panel, 48 h
CAKI-1 renal = tested on: CAKI-1 renal
DLD-1 colon = tested on: DLD-1 colon
KM20L2 colon = tested on: KM20L2 colon
M19-MEL melanoma = tested on: M19-MEL melanoma
DMS 273 small cell lung = tested on: DMS 273 small cell lung
COLO 205 colon = tested on: COLO 205 colon
TK-10 renal = tested on: TK-10 renal
OVCAR-5 ovarian = tested on: OVCAR-5 ovarian
OVCAR-4 ovarian = tested on: OVCAR-4 ovarian
SF-539 CNS = tested on: SF-539 CNS
MDA-MB-435 = tested on: MDA-MB-435
MDA-MB-231 breast = tested on: MDA-MB-231 breast

Row | SMILES | TGI (CAKI-1 renal) | TGI (DLD-1 colon) | TGI (KM20L2 colon) | TGI (M19-MEL melanoma) | TGI (DMS 273 small cell lung) | TGI (COLO 205 colon) | TGI (TK-10 renal) | TGI (OVCAR-5 ovarian) | TGI (OVCAR-4 ovarian) | TGI (SF-539 CNS) | TGI (MDA-MB-435) | TGI (MDA-MB-231 breast)
1 | Cc1ccc(S(=O)(=O)OCC23CCC(CC2)C2CC23)cc1 (stereo not drawn) | > 100 µM | > 100 µM | > 100 µM | > 100 µM | > 100 µM | > 100 µM | > 100 µM | > 100 µM | > 100 µM |  |  | 
2 | C1CCN(c2nc(=[N+]3CCCCC3)ss2)CC1 | > 100 µM | > 100 µM | > 100 µM | > 100 µM | > 100 µM |  | > 100 µM | > 100 µM | > 100 µM | > 100 µM |  | 
3 | COC(=O)CCC(=O)CC(=O)C(=O)Nc1c(Cl)cc([N+](=O)[O-])cc1Cl | > 100 µM | > 100 µM | > 100 µM | > 100 µM | > 100 µM | > 100 µM | > 100 µM | > 100 µM | > 100 µM | > 100 µM |  | 
4 | O=C1C2C3C=CC(C2C(=O)N1COP(=O)(O)O)C1C2C(=O)N(COP(=O)(O)O)C(=O)C2C31 (stereo not drawn) | > 100 µM | > 75.9 µM | > 100 µM | > 100 µM | > 56.3 µM | > 65 µM | > 100 µM | > 100 µM | > 100 µM | > 100 µM |  | 
5 | C=C(Br)N(CC)CC | > 100 µM | > 100 µM | > 100 µM | > 100 µM | > 100 µM | > 100 µM | > 100 µM | > 100 µM | > 100 µM | > 100 µM |  | 
6 | NCCCNCCCCN(CCCN)/[N+]([O-])=N\O | > 100 µM | > 100 µM | > 100 µM | > 100 µM | > 100 µM | > 100 µM |  | > 100 µM | > 100 µM | > 100 µM |  | 
7 | O=C(NP(=O)(N1CC1)N1CC1)c1cc(I)ccc1I | > 100 µM | > 100 µM | > 100 µM | > 100 µM | > 100 µM | > 100 µM | > 100 µM | > 100 µM | > 100 µM | 71.7 µM | > 100 µM | > 100 µM
8 | CCc1cccc(C(C)C)c1N1C(=O)C(=O)C(c2nc3ccccc3s2)C(=O)C1=O | > 50 µM | > 50 µM | > 50 µM | > 50 µM | > 50 µM | > 50 µM | > 50 µM | > 50 µM | > 50 µM | > 50 µM |  | 
9 | COc1cc2c3c(c1OC)-c1c(ccc4c1OCO4)CC3(C#N)N(C(=O)c1ccccc1)CC2 (stereo not drawn) | > 100 µM | > 100 µM | > 100 µM | > 100 µM | > 100 µM | > 100 µM | > 100 µM | > 100 µM | 59 µM | > 100 µM |  | 
10 | CCC1CN2CCc3c([nH]c4ccccc34)C2C[C@@H]1CC(=O)N(C)C (stereo partly drawn) |  | > 100 µM | > 100 µM | > 100 µM | > 100 µM | > 100 µM | > 100 µM | > 100 µM | > 100 µM | > 100 µM |  | 
11 | CCOC(=O)C(=Cc1ccc(Oc2ccccc2)cc1)C(=O)OCC | 28.4 µM | 5.21 µM | 16.8 µM |  | 3.68 µM | 11.4 µM | 19.4 µM | 14 µM | 22.9 µM | 10.3 µM | 6.33 µM | 
